Data reported in patent US20240197692A1, “Combination Comprising Everolimus and Amcenestrant” (Sanofi, priority 2021, published 2024).

What was measured:
[1] = amcenestrant 10 mg/kg BID, everolimus 10 mg/kg BIW, 28 days
Description: The animals required for experiment (plus extra) were pooled and implanted with MCF7 cells. On day 0 (12 days post implantation), the mice were pooled and randomly distributed to the treatment and control groups (10 mice per group), where median tumor volumes for each group was 119 mm^3. Treatments of amcenestrant and everolimus were initiated on day 1. For 28 days, amcenestrant was orally administered at 10 mg/kg BID (8 hours apart), and everolimus was orally administered at 10 mg/kg BIW. Animal body weight was assessed daily.
The dosages are expressed in mg/kg and based on daily body weight per animal. Vehicle treated animals were used as controls. Mice were checked daily for adverse clinical reactions. Individual mice were weighed daily until the end of the experiment. Mice were euthanized when morbid or weight loss ≥20% was observed. Tumors were measured with a caliper twice weekly until final sacrifice. When a tumor size reached approximately 3000 mm^3 or when there were animal health issues (40% area of a tumor ulcerated), animals were euthanized, and date of death recorded. Solid tumor volumes were estimated from two-dimensional tumor measurements and calculated according to the following equation:
Animal body weight included the tumor weight.

[2] = test system: orthotopic MCF7 human breast cancer cell line xenograft; assay: Anti-tumor efficacy against orthotopic MCF7 human breast cancer cell line xenograft in NOD/SCID mice; format: in vivo, female NOD/SCID mice; details: for Tumor volume changes from baseline: Median: amcenestrant 10 mg/kg BID, everolimus 10 mg/kg BIW; for Regressions Complete: animals with complete regression / animals in group; for Regressions Complete / Regressions Partial / Median % of regressions on day 28 / ΔT/ΔC in % at day 28: amcenestrant 10 mg/kg PO BID, everolimus 10 mg/kg PO BIW; for Regressions Partial: animals with partial regression / animals in group; for Biological Interpretation: based on ΔT/ΔC at day 28; for ΔT/ΔC in % at day 28: 28 days
Description: In the present study, the anti-tumor efficacy of amcenestrant combined with everolimus was investigated after 28 days treatment against an orthotopic MCF7 human breast cancer cell line xenograft in female NOD/SCID mice.
The treated groups included amcenestrant at 10 mg/kg alone, everolimus at 10 mg/kg alone, and the combination of amcenestrant and everolimus at the same dose and regime.
For 28 days, amcenestrant was orally dosed twice a day (BID), and everolimus was orally dosed twice a week (BIW). Anti-tumor efficacy was evaluated by tumor volume measurement.
Female NOD/SCID mice were obtained from GemPharmatech Co., Ltd (Nanjing University National Resource Center for Mutant Mice, Model Animal Research Center) (Nanjing, CHINA). Animals were allowed to acclimate for at least four days before the study enrollment. Mice were 7 to 8 weeks old and weighed between 22.5 and 28.4 grams at the beginning of the treatments. These animals were housed under conditions outlined in the guidelines approved by the Institutional Animal Care and Use Committee (IACUC) of CrownBio following the guidance of the Association for Assessment and Accreditation of Laboratory Animal Care (AAALAC).
MCF7 cells were obtained from the American Type Culture Collection (ATCC® HTB-22™). The MCF7 tumor cells were maintained in vitro with MEM medium supplemented with 10% fetal bovine serum, 0.01 mM non-essential amino acid, 0.01 mg/ml bovine insulin, and 2 mM L-glutamine at 37° C. in an atmosphere of 5% CO2 in air. The cells in exponential growth phase were harvested and quantitated by cell counter before tumor inoculation.
The mouse was subcutaneously implanted with estrogen pellets (0.18 mg/pellet, 17β-estradiol, Innovative Research of America, Sarasota, Florida, USA), hereafter referred to as “E2 supplement”, at the right flank one day before the tumor inoculation. Each mouse was inoculated with MCF-7 tumor cells (2×10 e7) in 0.25 ml of PBS/Matrigel (1:1) mixture at the right mammary fat pad for tumor development.
Everolimus (Manufacturer: Selleck; Lot number: S1120) was formulated in 30% propylene glycol (dissolve first): 5% Tween 80: 65% ddH2O (double distilled water).
Dose volume for amcenestrant and everolimus for oral administration: 10 ml/kg.
Doses: amcenestrant at 10 mg/kg and everolimus at 10 mg/kg in the above volume.
Animal body weight was assessed daily.
Vehicle treated animals were used as controls.
The primary efficacy end points include tumor volume changes from baseline summarized by the ratio of medians of tumor volume changes from baseline between the treated and control groups (ΔT/ΔC). Changes in tumor volume for each treated (T) and control (C) group were calculated for each animal on each day by subtracting the tumor volume on the day of first treatment (staging day) from the tumor volume on the specified observation day. The median ΔT was calculated for the treated group and the median ΔC was calculated for the control group. The ratio ΔT/ΔC was calculated and expressed as percentage: […]
Percent tumor regression is defined as % (percentage) of tumor volume decrease in the treated group on a specified observation day compared to its volume when the study was initiated. At a specific time point (t) and for each animal, the regression percentage was calculated using the following formula: […]
The median percent regression for a group on a given day was then calculated by taking the median of individual % regression values calculated for each animal in the group. The day of calculation was determined by the day when ΔT/ΔC is calculated, except if median percent regression was not representative of the activity of the group. In this case, the day was determined by the first day when the median percent regression was maximal.
A two-way analysis of variance (ANOVA) with factors treatment and day (repeated) was performed on tumor volume changes from baseline.

Structure (SMILES)	Drug-related body weight loss/animal death [1]	Tumor volume changes from baseline: Median ([2]; Day 4) [mm^3]	Tumor volume changes from baseline: Median ([2]; Day 7) [mm^3]	Tumor volume changes from baseline: Median ([2]; Day 11) [mm^3]	Tumor volume changes from baseline: Median ([2]; Day 14) [mm^3]	Tumor volume changes from baseline: Median ([2]; Day 18) [mm^3]	Tumor volume changes from baseline: Median ([2]; Day 21) [mm^3]	Tumor volume changes from baseline: Median ([2]; Day 25) [mm^3]	Tumor volume changes from baseline: Median ([2]; Day 28) [mm^3]	Regressions Complete [2]	Regressions Partial [2]	Biological Interpretation [2]	Median % of regressions on day 28 [2] [%]	ΔT/ΔC in % at day 28 [2] [%]
O=C(O)c1ccc2c(c1)CCCC(c1ccc(Cl)cc1Cl)=C2c1ccc(O[C@H]2CCN(CCCF)C2)cc1 [Amcenestrant, 6-(2,4-dichlorophenyl)-5-[4-[(3S)-1-(3-fluoropropyl)pyrrolidin-3-yl]oxyphenyl]-8,9-dihydro-7H-benzo[7]annulene-2-carboxylic acid]	no drug-related body weight loss/animal death was observed	22.0	32.5	60.0	76.5	40.0	−2.0	−38.0	−42.0	0/9	8/9	Very active (ΔT/ΔC<0% is considered as tumor regression (very active))	−13	−13
CO[C@H]1C[C@@H]2CC[C@@H](C)[C@@](O)(O2)C(=O)C(=O)N2CCCC[C@H]2C(=O)O[C@H]([C@H](C)C[C@@H]2CC[C@@H](OCCO)[C@H](OC)C2)CC(=O)[C@H](C)/C=C(\C)[C@@H](O)[C@@H](OC)C(=O)[C@H](C)C[C@H](C)/C=C/C=C/C=C/1C [Everolimus]	no drug-related body weight loss/animal death was observed	28.5	48.0	65.0	81.5	10.0	−48.0	−47.0	−53.0	0/6	5/6	Very active (ΔT/ΔC<0% is considered as tumor regression (very active))	−17	−17
